These results are taken from ChEMBL document CHEMBL4184249, “Structural development of tetrachlorophthalimides as liver X receptor β (LXRβ)-selective agonists with improved aqueous solubility” (Bioorg Med Chem Lett, 2018).

In brackets after ≈: the same amount, converted by molar mass. Activity calls are given as the source filed them. No cut-off for these calls is given here. A value given as a limit tells only on which side of the number the result lay.

The target of the first series is T1, Oxysterols receptor LXR-beta (Homo sapiens) (UniProt P55055).
T1 sequence (whole entry): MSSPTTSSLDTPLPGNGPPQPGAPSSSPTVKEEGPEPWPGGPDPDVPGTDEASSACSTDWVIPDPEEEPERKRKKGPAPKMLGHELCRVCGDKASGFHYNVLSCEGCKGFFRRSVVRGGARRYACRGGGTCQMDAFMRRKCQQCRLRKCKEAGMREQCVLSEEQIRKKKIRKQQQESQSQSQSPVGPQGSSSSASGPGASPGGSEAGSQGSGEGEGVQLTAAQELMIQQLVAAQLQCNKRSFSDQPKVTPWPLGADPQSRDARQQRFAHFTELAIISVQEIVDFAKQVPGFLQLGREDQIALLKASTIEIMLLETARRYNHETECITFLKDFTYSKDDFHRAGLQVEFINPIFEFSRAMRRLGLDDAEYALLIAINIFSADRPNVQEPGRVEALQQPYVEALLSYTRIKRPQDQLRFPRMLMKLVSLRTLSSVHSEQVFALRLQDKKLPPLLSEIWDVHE
The experiment in a line: Agonist activity at human LXRbeta expressed in HEK293 cells co-expressing CMX-beta-galactosidase at 30 uM incubated for 16 hrs by luciferase reporter gene assay. It counts as cell-based. In general terms: In a reporter assay the amount or activity of a reporter protein is the signal.
As for `O=C1c2c(Cl)c(Cl)c(Cl)c(Cl)c2C(=O)N1c1cccc2ccccc12`, the result was inactive.

The target in a further series is T2, Oxysterols receptor LXR-beta (Mus musculus) (UniProt Q60644).
T2 sequence (whole entry): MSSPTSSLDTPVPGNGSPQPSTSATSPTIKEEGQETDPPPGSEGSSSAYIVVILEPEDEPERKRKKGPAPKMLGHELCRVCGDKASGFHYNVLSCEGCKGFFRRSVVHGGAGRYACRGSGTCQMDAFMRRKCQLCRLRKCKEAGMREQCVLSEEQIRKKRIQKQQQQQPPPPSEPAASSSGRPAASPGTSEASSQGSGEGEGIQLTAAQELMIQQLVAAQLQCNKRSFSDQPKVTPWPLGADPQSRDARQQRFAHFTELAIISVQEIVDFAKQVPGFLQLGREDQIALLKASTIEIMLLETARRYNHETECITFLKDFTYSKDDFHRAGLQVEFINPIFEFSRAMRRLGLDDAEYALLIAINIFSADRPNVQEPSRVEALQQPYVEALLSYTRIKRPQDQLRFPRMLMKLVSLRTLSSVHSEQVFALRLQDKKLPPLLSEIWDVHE
The experiment in a line: Agonist activity at mouse LXRbeta expressed in HEK293 cells co-expressing CMX-beta-galactosidase incubated for 16 hrs by luciferase reporter gene assay relative to T0901317. It counts as cell-based.
Turning to `O=C1c2c(Cl)c(Cl)c(Cl)c(Cl)c2C(=O)N1c1ccccc1/C=C/c1nccs1`, the Efficacy is 22%.

On to `O=C1c2c(Cl)c(Cl)c(Cl)c(Cl)c2C(=O)N1c1ccccc1/C=C/c1ccsc1`, for which the Efficacy turned out to be 23%.

`O=C1c2c(Cl)c(Cl)c(Cl)c(Cl)c2C(=O)N1c1ccccc1/C=C/c1ccccc1` displayed an Efficacy of 26%.

The next series addresses T1, Oxysterols receptor LXR-beta (Homo sapiens). The series is described as follows: Agonist activity at human LXRbeta expressed in HEK293 cells co-expressing CMX-beta-galactosidase incubated for 16 hrs by luciferase reporter gene assay relative to T0901317. It counts as cell-based.
In turn, `O=C1c2c(Cl)c(Cl)c(Cl)c(Cl)c2C(=O)N1c1ccccc1/C=C/c1nccs1` gave an Efficacy of 151%.

As for `O=C1c2c(Cl)c(Cl)c(Cl)c(Cl)c2C(=O)N1c1ccccc1/C=C/c1ccsc1`, the Efficacy worked out at 133%.

For `O=C1c2c(Cl)c(Cl)c(Cl)c(Cl)c2C(=O)N1c1ccccc1/C=C/c1cccnc1`, the Efficacy was determined as 141%.

Compound `O=C1c2c(Cl)c(Cl)c(Cl)c(Cl)c2C(=O)N1c1ccccc1Oc1ccccc1` showed an Efficacy of 99%.

For `O=C1c2c(Cl)c(Cl)c(Cl)c(Cl)c2C(=O)N1c1ccccc1/C=C/c1ccco1`, the Efficacy is 167%.

Consider `O=C1c2c(Cl)c(Cl)c(Cl)c(Cl)c2C(=O)N1c1ccccc1-c1ccccc1`, for which the Efficacy was determined as 153%.

`O=C1c2c(Cl)c(Cl)c(Cl)c(Cl)c2C(=O)N1c1ccccc1CCc1ccccc1`: the Efficacy was found to be 117%.

On to `O=C1c2c(Cl)c(Cl)c(Cl)c(Cl)c2C(=O)N1c1ccccc1/C=C/c1ccccn1`, for which the Efficacy was 148%.

Consider `O=C1c2c(Cl)c(Cl)c(Cl)c(Cl)c2C(=O)N1c1ccccc1/C=C/c1ccccc1`, for which the Efficacy came to 143%.

Consider `O=C1c2c(Cl)c(Cl)c(Cl)c(Cl)c2C(=O)N1c1ccccc1Cc1ccccc1`, for which the Efficacy is 109%.

The target of another series is T3, Oxysterols receptor LXR-beta (Homo sapiens, UniProt P55055).
T3 sequence (P55055 whole entry): T1 sequence (whole entry)
The series is described as follows: Agonist activity at human LXRbeta expressed in HEK293 cells co-expressing CMX-beta-galactosidase incubated for 16 hrs by luciferase reporter gene assay. It counts as cell-based.
With `O=C1c2c(Cl)c(Cl)c(Cl)c(Cl)c2C(=O)N1c1ccccc1/C=C/c1ccncc1`, the EC50 – broadly, the concentration that produces a half-maximal response – is > 10 µM.

`O=C1c2c(Cl)c(Cl)c(Cl)c(Cl)c2C(=O)N1c1ccccc1/C=C/c1nccs1` returned a half-maximal effective concentration (EC50) of 3.61 µM.

Consider `O=C1c2c(Cl)c(Cl)c(Cl)c(Cl)c2C(=O)N1c1ccccc1/C=C/c1ccsc1`, for which the response was half-maximal at 0.915 µM (EC50). Compared with the last compound, the EC50 is about 3.9-fold lower.

`O=C1c2c(Cl)c(Cl)c(Cl)c(Cl)c2C(=O)N1c1ccccc1/C=C/c1cccnc1`: the EC50 worked out at 4.96 µM.

Consider `O=C1c2c(Cl)c(Cl)c(Cl)c(Cl)c2C(=O)N1c1ccccc1Oc1ccccc1`, for which the EC50 came out at 8.98 µM.

Consider `O=C1c2c(Cl)c(Cl)c(Cl)c(Cl)c2C(=O)N1c1ccccc1/C=C/c1ccco1`, for which a half-maximal effect (EC50) was put at 4.67 µM.

As to `O=C1c2c(Cl)c(Cl)c(Cl)c(Cl)c2C(=O)N1c1ccccc1-c1ccccc1`, the EC50 is 1.73 µM.

`O=C1c2c(Cl)c(Cl)c(Cl)c(Cl)c2C(=O)N1c1ccccc1CCc1ccccc1` had an EC50 of 4.98 µM.

As for `O=C1c2c(Cl)c(Cl)c(Cl)c(Cl)c2C(=O)N1c1ccccc1/C=C\c1ccccc1`, the EC50 is > 10 µM.

`O=C1c2c(Cl)c(Cl)c(Cl)c(Cl)c2C(=O)N1c1ccccc1/C=C/c1ccccn1` returned a half-maximal effective concentration (EC50) of 4.77 µM. That is a single-digit micromolar value.

With `O=C1c2c(Cl)c(Cl)c(Cl)c(Cl)c2C(=O)N1c1ccccc1/C=C/c1ccccc1`, the EC50 was determined as 0.27 µM. This EC50 lies about 18-fold lower than the previous one.

For `O=C1c2c(Cl)c(Cl)c(Cl)c(Cl)c2C(=O)N1c1ccccc1Cc1ccccc1`, the EC50 came out at 8 µM. This EC50 lies about 30-fold higher than the previous one.

The target in a further series is T1, Oxysterols receptor LXR-beta (Homo sapiens). The experiment in a line: Agonist activity at LXRbeta in human THP1 cells assessed as increase in ABCA1 mRNA expression at 1 uM by real-time quantitative RT-PCR method. It counts as cell-based.
Take `O=C1c2c(Cl)c(Cl)c(Cl)c(Cl)c2C(=O)N1c1ccccc1/C=C/c1ccccc1`: the outcome was Active.

The next series shares this target. The experiment in a line: Agonist activity at human LXRbeta expressed in HEK293 cells co-expressing CMX-beta-galactosidase incubated for 16 hrs at 30 uM by luciferase reporter gene assay relative to T0901317. It counts as cell-based.
`O=C1c2c(Cl)c(Cl)c(Cl)c(Cl)c2C(=O)N1c1ccccc1/C=C/c1ccncc1` gave an Efficacy of 35%.

`O=C1c2c(Cl)c(Cl)c(Cl)c(Cl)c2C(=O)N1c1ccccc1/C=C\c1ccccc1` registered an Efficacy of 104%.

Tested on in a further series: not listed separately
The experiment in a line: Aqueous solubility of the compound in EtOH: 1/15 M phosphate buffer at pH 7.4 1:1 by HPLC method. The class given is physicochemical.
As for `O=C1c2c(Cl)c(Cl)c(Cl)c(Cl)c2C(=O)N1c1ccccc1/C=C/c1ccccc1`, the solubility (as a rule, the concentration that dissolves in the medium under given conditions) came out at 3.6 ng/mL (≈ 7.77 nM).

For a further series, the target named is T4, Oxysterols receptor LXR-beta (Mus musculus, UniProt Q60644).
T4 sequence (Q60644 whole entry): T2 sequence (whole entry)
The series is described as follows: Agonist activity at mouse LXRbeta expressed in HEK293 cells co-expressing CMX-beta-galactosidase incubated for 16 hrs by luciferase reporter gene assay. It counts as cell-based.
`O=C1c2c(Cl)c(Cl)c(Cl)c(Cl)c2C(=O)N1c1ccccc1/C=C/c1nccs1`: the concentration giving a half-maximal response (EC50) turned out to be 2.93 µM.

`O=C1c2c(Cl)c(Cl)c(Cl)c(Cl)c2C(=O)N1c1ccccc1/C=C/c1ccsc1`: a half-maximal effect (EC50) was put at 0.82 µM.

For `O=C1c2c(Cl)c(Cl)c(Cl)c(Cl)c2C(=O)N1c1ccccc1/C=C/c1ccccc1`, the EC50 came out at 0.3 µM.

The target of another series is T5, Oxysterols receptor LXR-alpha (Homo sapiens) (UniProt Q13133).
T5 sequence (whole entry): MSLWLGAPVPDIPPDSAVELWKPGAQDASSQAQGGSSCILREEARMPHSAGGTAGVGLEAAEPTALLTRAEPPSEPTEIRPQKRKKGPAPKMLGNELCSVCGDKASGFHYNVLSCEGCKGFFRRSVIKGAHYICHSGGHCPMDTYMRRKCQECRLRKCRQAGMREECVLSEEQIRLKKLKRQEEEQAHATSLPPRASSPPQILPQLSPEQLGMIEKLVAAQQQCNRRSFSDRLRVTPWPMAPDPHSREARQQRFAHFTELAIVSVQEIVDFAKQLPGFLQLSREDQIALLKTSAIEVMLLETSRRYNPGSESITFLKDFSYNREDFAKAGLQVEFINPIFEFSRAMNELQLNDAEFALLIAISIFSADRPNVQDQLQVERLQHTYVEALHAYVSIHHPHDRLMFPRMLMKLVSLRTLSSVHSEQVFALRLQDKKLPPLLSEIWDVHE
The series is described as follows: Agonist activity at human LXRalpha expressed in HEK293 cells co-expressing CMX-beta-galactosidase at 30 uM incubated for 16 hrs by luciferase reporter gene assay. It counts as cell-based.
For the compound `O=C1c2c(Cl)c(Cl)c(Cl)c(Cl)c2C(=O)N1c1ccccc1/C=C/c1ccncc1`, the outcome was inactive.

Consider `O=C1c2c(Cl)c(Cl)c(Cl)c(Cl)c2C(=O)N1c1ccccc1/C=C/c1nccs1`, for which the result was inactive.

Consider `O=C1c2c(Cl)c(Cl)c(Cl)c(Cl)c2C(=O)N1c1ccccc1/C=C/c1ccsc1`, for which the result was inactive.

For `O=C1c2c(Cl)c(Cl)c(Cl)c(Cl)c2C(=O)N1c1ccccc1/C=C/c1cccnc1`, the outcome was inactive.

For `O=C1c2c(Cl)c(Cl)c(Cl)c(Cl)c2C(=O)N1c1ccccc1Oc1ccccc1`, the result was inactive.

For the compound `O=C1c2c(Cl)c(Cl)c(Cl)c(Cl)c2C(=O)N1c1ccccc1/C=C/c1ccco1`, the outcome was inactive.

On to `O=C1c2c(Cl)c(Cl)c(Cl)c(Cl)c2C(=O)N1c1ccccc1-c1ccccc1`, for which the result was inactive.

On to `O=C1c2c(Cl)c(Cl)c(Cl)c(Cl)c2C(=O)N1c1ccccc1CCc1ccccc1`, for which the result was inactive.

`O=C1c2c(Cl)c(Cl)c(Cl)c(Cl)c2C(=O)N1c1cccc2ccccc12`: the outcome was inactive.

As for `O=C1c2c(Cl)c(Cl)c(Cl)c(Cl)c2C(=O)N1c1ccccc1/C=C\c1ccccc1`, the outcome was inactive.

As to `O=C1c2c(Cl)c(Cl)c(Cl)c(Cl)c2C(=O)N1c1ccccc1/C=C/c1ccccn1`, the outcome was inactive.

Consider `O=C1c2c(Cl)c(Cl)c(Cl)c(Cl)c2C(=O)N1c1ccccc1/C=C/c1ccccc1`, for which the result was inactive.

Turning to `O=C1c2c(Cl)c(Cl)c(Cl)c(Cl)c2C(=O)N1c1ccccc1Cc1ccccc1`, the result was inactive.

The target of another series is T6, Oxysterols receptor LXR-alpha (Mus musculus) (UniProt Q9Z0Y9).
T6 sequence (whole entry): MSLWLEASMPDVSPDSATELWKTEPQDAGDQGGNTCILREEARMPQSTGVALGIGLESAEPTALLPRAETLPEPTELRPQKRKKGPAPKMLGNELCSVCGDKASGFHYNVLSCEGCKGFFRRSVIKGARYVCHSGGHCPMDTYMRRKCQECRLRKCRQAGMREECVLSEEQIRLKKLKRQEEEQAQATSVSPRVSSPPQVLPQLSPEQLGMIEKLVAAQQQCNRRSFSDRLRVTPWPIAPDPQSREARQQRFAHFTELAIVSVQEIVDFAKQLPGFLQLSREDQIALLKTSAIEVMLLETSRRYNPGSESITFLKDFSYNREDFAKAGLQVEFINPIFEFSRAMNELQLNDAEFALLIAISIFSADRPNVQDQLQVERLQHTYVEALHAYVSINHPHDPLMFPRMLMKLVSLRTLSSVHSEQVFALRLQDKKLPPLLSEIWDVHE
The experiment in a line: Agonist activity at mouse LXRalpha expressed in HEK293 cells co-expressing CMX-beta-galactosidase at 30 uM incubated for 16 hrs by luciferase reporter gene assay. The class given is cell-based.
As to `O=C1c2c(Cl)c(Cl)c(Cl)c(Cl)c2C(=O)N1c1ccccc1/C=C/c1nccs1`, the outcome was inactive.

As for `O=C1c2c(Cl)c(Cl)c(Cl)c(Cl)c2C(=O)N1c1ccccc1/C=C/c1ccsc1`, the outcome was inactive.

Take `O=C1c2c(Cl)c(Cl)c(Cl)c(Cl)c2C(=O)N1c1ccccc1Oc1ccccc1`: the outcome was inactive.

Regarding `O=C1c2c(Cl)c(Cl)c(Cl)c(Cl)c2C(=O)N1c1ccccc1/C=C/c1ccccc1`, the result was inactive.

As for `O=C1c2c(Cl)c(Cl)c(Cl)c(Cl)c2C(=O)N1c1ccccc1Cc1ccccc1`, the outcome was inactive.
